Experimental data: patent US20240116985A1, “STAPLED PEPTIDES AND METHODS THEREOF” (priority 2020, published 2024)
Where two headings read alike, the source gives them in different places.

Experiments:
[1] = target: T1, full-length beta-Catenin (Uniprot ID P35222) (Homo sapiens, UniProt P35222); assay: Fluorescence polarization IC50 (beta-catenin / 5FAM-TCF4 10-53 competition); assay type: binding; settings: fluorescence polarization; read-out: beta-Catenin FP IC50
T1 construct: 10 nM full-length beta-Catenin (Uniprot ID P35222)
T1 sequence (P35222 1-781): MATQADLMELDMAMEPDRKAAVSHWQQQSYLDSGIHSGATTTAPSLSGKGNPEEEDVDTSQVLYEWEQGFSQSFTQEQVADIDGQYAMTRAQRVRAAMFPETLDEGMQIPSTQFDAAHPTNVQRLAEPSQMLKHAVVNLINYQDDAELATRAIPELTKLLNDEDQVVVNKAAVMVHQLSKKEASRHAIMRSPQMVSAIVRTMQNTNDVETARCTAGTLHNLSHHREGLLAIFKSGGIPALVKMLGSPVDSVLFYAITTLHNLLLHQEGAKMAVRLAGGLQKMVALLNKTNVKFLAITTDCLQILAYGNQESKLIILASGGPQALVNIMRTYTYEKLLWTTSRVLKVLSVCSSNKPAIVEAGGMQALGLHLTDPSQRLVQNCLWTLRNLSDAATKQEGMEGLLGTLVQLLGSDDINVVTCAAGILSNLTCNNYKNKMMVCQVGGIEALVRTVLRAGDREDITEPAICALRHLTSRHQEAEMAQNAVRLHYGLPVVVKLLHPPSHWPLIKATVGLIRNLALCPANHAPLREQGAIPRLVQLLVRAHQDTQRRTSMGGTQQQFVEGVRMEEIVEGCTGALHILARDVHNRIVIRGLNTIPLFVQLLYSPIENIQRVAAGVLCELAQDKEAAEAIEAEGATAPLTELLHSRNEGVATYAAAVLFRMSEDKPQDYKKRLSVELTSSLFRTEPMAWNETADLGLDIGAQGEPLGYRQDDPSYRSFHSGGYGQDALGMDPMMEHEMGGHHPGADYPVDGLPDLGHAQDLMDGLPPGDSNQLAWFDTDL

[2] = target: T2, beta-catenin/TCF4 engagement (Homo sapiens, UniProt P35222); assay: Nano-BRET target engagement assay (B-cat-Halo & TCF4-Luc in HEK293 cells); assay type: cell-based; settings: read-out: NanoBRET Abs IC50
T2 construct: expressed in transfected cells; host or cells: HEK293
T2 sequence (P35222 1-781): T1 sequence (P35222 1-781)

In the case of `CC(=O)N1CCC[C@]12CC=CCCCC1(CCCC=CCCCOC(=O)N3CC[C@@](C(=O)N[C@@H](Cc4ccsc4)C(=O)N[C@@H](Cc4csc5ccccc45)C(=O)N[C@H](C(N)=O)C(C)C)(C3)NC(=O)[C@H](CC(C)C)NC(=O)[C@H](Cc3ccccc3)NC(=O)[C@H](C)NC(=O)[C@H](C)NC(=O)[C@H](CC(=O)O)NC(=O)[C@H](CC(=O)O)NC1=O)NC(=O)[C@H](CC(C)(C)C)NC(=O)[C@H](CC(=O)O)NC2=O` (stereo partly drawn) [I-1495, Ac-PL3-Asp-Npg-B5-Asp-Asp-Ala-Ala-Phe-Leu-PyrS2-3Thi-BztA-Val-NH2], the IC50 [1] is reported as 24 nM and the IC50 ([2]; absolute IC50) is reported as 23900 nM.

In the case of `CC(=O)N1CCC[C@]12CC=CCCCC1(CCCC=CCCCOC(=O)N3CC[C@@](C(=O)N[C@@H](Cc4ccsc4)C(=O)N[C@H](C(=O)N[C@@H](C)C(N)=O)[C@@H](C)c4ccc5ccccc5c4)(C3)NC(=O)[C@H](C(C)C)NC(=O)[C@H](Cc3ccccc3)NC(=O)[C@H](C)NC(=O)[C@H](CCC(N)=O)NC(=O)[C@H](Cc3cccc(C(=O)O)c3)NC(=O)[C@H](CC(=O)O)NC1=O)NC(=O)[C@H](CC(C)(C)C)NC(=O)[C@H](CC(=O)O)NC2=O` (stereo partly drawn) [I-2314, Ac-PL3-Asp-Npg-B5-Asp-3COOHF-Gln-Ala-Phe-Val-PyrS2-3Thi-SbMe2NapA-Ala-NH2], the IC50 [1] is reported as 48 nM and the IC50 ([2]; absolute IC50) is reported as > 20000 nM.

`CC(=O)N1CCC[C@]12CC=CCCCC1(CCCC=CCCCOC(=O)N3CC[C@@](C(=O)N[C@@H](Cc4ccsc4)C(=O)N[C@@H](Cc4csc5ccccc45)C(=O)N[C@@H](CCC(N)=O)C(N)=O)(C3)NC(=O)[C@H](CC(C)C)NC(=O)[C@H](Cc3ccccc3)NC(=O)[C@H](CCCN3CCC(F)(F)CC3)NC(=O)[C@H](C)NC(=O)[C@H](CC(=O)O)NC(=O)[C@H](CC(=O)O)NC1=O)NC(=O)[C@H](CC(C)(C)C)NC(=O)[C@H](CC(=O)O)NC2=O` (stereo partly drawn) [I-1502, Ac-PL3-Asp-Npg-B5-Asp-Asp-Ala-F2PipNva-Phe-Leu-PyrS2-3Thi-BztA-Gln-NH2] was tested, and the IC50 [1] was 34 nM and the IC50 ([2]; absolute IC50) was > 20000 nM.

For `CC(=O)N1CCC[C@]12CC=CCCCC1(CCCC=CCCCOC(=O)N3CC[C@@](C(=O)N[C@@H](Cc4ccccc4Cl)C(=O)N[C@@H](Cc4csc5ccccc45)C(=O)N[C@@H](CCC(N)=O)C(N)=O)(C3)NC(=O)[C@H]([C@@H](C)O)NC(=O)[C@H](Cc3ccccc3)NC(=O)[C@H](C)NC(=O)CNC(=O)[C@H](CN(CC(=O)O)CC(F)(F)F)NC(=O)[C@H](CC(=O)O)NC1=O)NC(=O)[C@H](CC(C)(C)C)NC(=O)[C@H](CC(=O)O)NC2=O` (stereo partly drawn) [I-1691, Ac-PL3-Asp-Npg-B5-Asp-TfeGA-Gly-Ala-Phe-Thr-PyrS2-2C1F-BztA-Gln-NH2], the IC50 [1] was 11 nM and the IC50 ([2]; absolute IC50) was 12800 nM.

`CC(=O)N1CCC[C@]12CC=CCCCC1(CCCC=CCCCOC(=O)N3CC[C@@](C(=O)N[C@@H](Cc4ccsc4)C(=O)N[C@@H](Cc4ccc(Cl)c(Cl)c4)C(=O)N[C@@H](CCC(N)=O)C(N)=O)(C3)NC(=O)[C@H](CC(C)C)NC(=O)[C@H](Cc3ccccc3)NC(=O)[C@H](C)NC(=O)[C@H](C)NC(=O)[C@H](CC(=O)O)NC(=O)[C@H](CC(=O)O)NC1=O)NC(=O)[C@H](CC(C)(C)C)NC(=O)[C@H](CC(=O)O)NC2=O` (stereo partly drawn) [I-2183, Ac-PL3-Asp-Npg-B5-Asp-Asp-Ala-Ala-Phe-Leu-PyrS2-3Thi-34C1F-Gln-NH2] gave an IC50 [1] of 5 nM and an IC50 [2] of 5000 nM.

Molecule `CC(=O)N1CCC[C@]12CC=CCCCC1(CCCC=CCCCOC(=O)N3CC[C@@](C(=O)N[C@@H](Cc4ccccc4Cl)C(=O)N[C@@H](Cc4csc5ccccc45)C(=O)N[C@@H](CC(N)=O)C(N)=O)(C3)NC(=O)[C@H](CO)NC(=O)[C@H](Cc3ccccc3)NC(=O)[C@H](C)NC(=O)[C@H](C)NC(=O)[C@H](Cc3cccc(C(=O)O)c3)NC(=O)[C@H](CC(=O)O)NC1=O)NC(=O)[C@H](CC(C)(C)C)NC(=O)[C@H](CC(=O)O)NC2=O` (stereo partly drawn) [I-2038, Ac-PL3-Asp-Npg-B5-Asp-3COOHF-Ala-Ala-Phe-Ser-PyrS2-2C1F-BztA-Asn-NH2] has an IC50 [1] of 11 nM and an IC50 [2] of 11800 nM.

With `CC(=O)N1CCC[C@]12CC=CCCCC1(CCCC=CCCCOC(=O)N3CC[C@@](C(=O)N[C@@H](Cc4ccsc4)C(=O)N[C@@H](Cc4csc5ccccc45)C(=O)N[C@@H](CCC(N)=O)C(N)=O)(C3)NC(=O)[C@H](CC(C)C)NC(=O)[C@H](Cc3ccccc3)NC(=O)[C@H](C)NC(=O)[C@H](C)NC(=O)[C@H](CC(=O)O)NC(=O)[C@H](CC(=O)O)NC1=O)NC(=O)[C@H](CCCCNC(=O)COCCOCCNC(=O)CC[C@@H](C)[C@H]1CC[C@H]3[C@@H]4CC[C@@H]5C[C@H](O)CC[C@]5(C)[C@H]4CC[C@]13C)NC(=O)[C@H](CC(=O)O)NC2=O` (stereo partly drawn) [I-1470, Ac-PL3-Asp-[lithocholate-PEG2]-Lys-B5-Asp-Asp-Ala-Ala-Phe-Leu-PyrS2-3Thi-BztA-Gln-NH2] the IC50 [1] was 57 nM and the IC50 ([2]; absolute IC50) was > 20000 nM.

`CC(=O)N1CCC[C@]12CC=CCCCC1(CCCC=CCCCOC(=O)N3CC[C@@](C(=O)N[C@@H](Cc4ccsc4)C(=O)N[C@@H](Cc4csc5ccccc45)C(=O)N[C@@H](CCC(N)=O)C(N)=O)(C3)NC(=O)[C@H](CC(C)C)NC(=O)[C@H](Cc3ccccc3)NC(=O)[C@H](C)NC(=O)[C@H](C)NC(=O)[C@H](CC(=O)O)NC(=O)[C@H](CC(=O)O)NC1=O)NC(=O)[C@H](Cc1ccc(O)cc1)NC(=O)[C@H](CC(=O)O)NC2=O` (stereo partly drawn) [I-1511, Ac-PL3-Asp-Tyr-B5-Asp-Asp-Ala-Ala-Phe-Leu-PyrS2-3Thi-BztA-Gln-NH2] was tested, and the IC50 [1] was 5 nM and the IC50 ([2]; absolute IC50) was > 20000 nM.

`CC(=O)N1CCC[C@]12CC=CCCCC1(CCCC=CCCCCCC[C@@](C)(C(=O)N[C@@H](Cc3ccccc3)C(=O)N[C@@H](Cc3csc4ccccc34)C(=O)N[C@@H](CCC(N)=O)C(N)=O)NC(=O)[C@H](CC(C)C)NC(=O)[C@H](Cc3ccccc3)NC(=O)[C@H](C)NC(=O)[C@H](C)NC(=O)[C@H](CCC(=O)O)NC(=O)[C@H](CC(=O)O)NC1=O)NC(=O)[C@H](Cc1ccccc1)NC(=O)[C@H](CC(=O)O)NC2=O` (stereo partly drawn) [I-1550, Ac-PL3-Asp-Phe-B5-Asp-Glu-Ala-Ala-Phe-Leu-S8-Phe-BztA-Gln-NH2] was tested, and the IC50 [1] was 22 nM and the IC50 ([2]; absolute IC50) was 15300 nM.

With `CC(=O)N1CCC[C@]12CC=CCCCC1(CCCC=CCCCOC(=O)N3CC[C@@](C(=O)N[C@@H](Cc4ccsc4)C(=O)N[C@@H](Cc4csc5ccccc45)C(=O)N[C@H](CO)[C@@H](C)O)(C3)NC(=O)[C@H](Cc3ccccc3)NC(=O)[C@H](Cc3ccccc3)NC(=O)[C@H](C)NC(=O)[C@H](C)NC(=O)[C@H](Cc3ccccc3C(=O)O)NC(=O)[C@H](CC(=O)O)NC1=O)NC(=O)[C@H](CC(C)(C)C)NC(=O)[C@H](CC(=O)O)NC2=O` (single isomer, unassigned) [I-1669, Ac-PL3-Asp-Npg-B5-Asp-2COOHF-Ala-Ala-Phe-Phe-PyrS2-3Thi-BztA-Thro1] the IC50 [1] was 30 nM and the IC50 ([2]; absolute IC50) was 11800 nM.

In the case of `CC(=O)N1CCC[C@]12CC=CCCCC1(CCCC=CCCCOC(=O)N3CC[C@@](C(=O)N[C@@H](Cc4ccccc4C(F)(F)F)C(=O)N[C@@H](Cc4csc5ccccc45)C(=O)N[C@@H](C)C(N)=O)(C3)NC(=O)[C@H](CC(C)C)NC(=O)[C@H](Cc3ccccc3)NC(=O)[C@H](C)NC(=O)[C@H](CCC(N)=O)NC(=O)[C@H](Cc3cc(C(=O)O)cc(C(C)C)c3)NC(=O)[C@H](CC(=O)O)NC1=O)NC(=O)[C@H](CC(C)(C)C)NC(=O)[C@H](CC(=O)O)NC2=O` (stereo partly drawn) [I-2431, Ac-PL3-Asp-Npg-B5-Asp-5iPr3COOHF-Gln-Ala-Phe-Leu-PyrS2-2F3MeF-BztA-Ala-NH2], the IC50 [1] is reported as 33 nM and the IC50 ([2]; absolute IC50) is reported as 7000 nM.

For `CC(=O)N1CCC[C@]12CC=CCCCC1(CCCC=CCCCOC(=O)N3CC[C@@](C(=O)N[C@@H](Cc4ccsc4)C(=O)N[C@@H](Cc4csc5ccccc45)C(=O)N[C@@H](CCC(N)=O)C(N)=O)(C3)NC(=O)[C@H](CC(C)C)NC(=O)[C@H](Cc3ccccc3)NC(=O)[C@H](C)NC(=O)[C@H](C)NC(=O)[C@H](CN(CC(=O)O)C(=O)Cc3c(F)c(F)c(F)c(F)c3F)NC(=O)[C@H](CC(=O)O)NC1=O)NC(=O)[C@H](CC(C)(C)C)NC(=O)[C@H](CC(=O)O)NC2=O` (stereo partly drawn) [I-2241, Ac-PL3-Asp-Npg-B5-Asp-[PfPhAc]GA-Ala-Ala-Phe-Leu-PyrS2-3Thi-BztA-Gln-NH2], the IC50 [1] was 18 nM and the IC50 ([2]; absolute IC50) was 17700 nM.

For `CNCCCCN(C)C(=O)CC[C@@H]1NC(=O)[C@H](Cc2cccc(C(=O)O)c2)NC(=O)[C@H](CC(=O)O)NC(=O)C2(CCCC=CCCCOC(=O)N3CC[C@@](C(=O)N[C@@H](Cc4ccsc4)C(=O)N[C@@H](Cc4csc5ccccc45)C(=O)N[C@@H](C)C(N)=O)(C3)NC(=O)[C@H](C(C)C)NC(=O)[C@H](Cc3ccccc3)NC(=O)[C@H](C)NC1=O)CCCC=CC[C@]1(CCCN1C(C)=O)C(=O)N[C@@H](CC(=O)O)C(=O)N[C@@H](CC(C)(C)C)C(=O)N2` (stereo partly drawn) [I-2301, Ac-PL3-Asp-Npg-B5-Asp-3COOHF-[Me2diaminobutane]GlnR-Ala-Phe-Val-PyrS2-3Thi-BztA-Ala-NH2], the IC50 [1] was 5 nM and the IC50 ([2]; absolute IC50) was > 20000 nM.
